Test results reported in EP0542609B1, “3-sulfonylamino-2-(1H)-quinolinones and 7-aza derivatives as excitatory amino acids antagonists” (ADIR ET COMPAGNIE, priority 1991, dated 1993).

Columns and labels:
récepteur AMPA [1] = assay: Membrane binding (3H-AMPA), rat cortex homogenate; details: binding to AMPA receptor, rat cortex membranes, 4°C, 30 min
Method: Il est réalisé à partir d'un homogénat de cortex de Rat. Le culot membranaire est classiquement préparé dans un tampon saccharose par centrifugations différentielles puis congelé jusqu'à utilisation. Après décongélation, 200 µl d'homogénat de membranes sont repris dans un tampon Tris HCl (30 mM), CaCl₂ (2,5 mM), pH 7,4 et incubés à 4°C pendant 30 minutes en présence de 25 µl de ³H-AMPA ou de ³H-Kainate et de 25 µl du produit à tester. La liaison non-spécifique est déterminée en présence de 10 µM de quisqualate (binding AMPA) ou de 10 µM d'acide kainique (binding kainate). Les membranes sont ensuite isolées par filtration. Après séchage des filtres, la radioactivité est mesurée par scintillation.

récepteur AMPA [2] = assay: AMPA-induced currents in Xenopus oocytes injected with rat cerebral cortex mRNA (two-electrode voltage clamp); assay type: cell-based; details: for Ki: Xenopus oocyte, AMPA 30 µM, -60 mV, read-out: Courant AMPA Ki; for Oocyte de Xenopus Ki AMPA/Ki NMDA/Gly: ratio of Ki on AMPA current to Ki on NMDA/Gly current
Method: (§1) Des oocytes de Xenopus sont injectés de 50 ng d'ARNm poly (A^+) isolés de cortex cérébral de Rat et incubés 2 à 3 Jours à 18°C pour en permettre l'expression protéique. Les courants entrants induits par les AAE sont mesurés dans un milieu de composition : NaCl (82,5 mM), KCl (2,5 mM), CaCl₂ (1 mM), MgCl₂ (1 mM), NaH₂PO₄ (1 mM), HEPES (5 mM), pH 7,4 par la méthode du Voltage-clamp à 2 électrodes (potentiel = - 60 mV). Pour la mesure des courants induits par le NMDA et la glycine, MgCl₂ est absent du milieu et le CaCl₂ est amené à la concentration de 2 mM. Les agonistes AAE induisant les courants sont utilisés aux concentrations suivantes : kainate : 100 µM; AMPA : 30 µM; glycine/NMDA : 3/30 µM. Le produit étudié est appliqué 30 secondes avant et durant l'application de l'agoniste.

récepteur kainate = assay: Kainate-induced currents in Xenopus oocytes injected with rat cerebral cortex mRNA (two-electrode voltage clamp); assay type: cell-based; details: Xenopus oocyte, kainate 100 µM, -60 mV; read-out: Courant Kainate IC50
Method: as §1

récepteurs AMPA/Kainate = assay: Hippocampal EPSP induced by AMPA/Kainate receptor activation (rat hippocampal slices, Schäffer collaterals stimulation); assay type: cell-based; details: for IC50: rat hippocampal slices, CA1, in presence of Mg++ (blocks NMDA receptors), read-out: IC50 (inhibition des EPSP hippocampiques induits par l'activation des récepteurs AMPA/Kainate); for EPSP hippocampique IC50 AMPA-Kainate/IC50 NMDA-Glycine: ratio of IC50 on AMPA-Kainate EPSP to IC50 on NMDA-Glycine EPSP
Method: Des coupes transversales (500 µm) d'hippocampe de Rat sont placées dans un milieu de composition : NaCl (120 mM), KCl (5 mM), CaCl₂ (1 mM), MgSO₄ (1 mM), KH₂PO₄ (1,3 mM), NaHCO₃ (20 mM), HEPES (10 mM), glucose (10 mM), pH 7,35. Les "EPSP" sont enregistrés dans le champ dendritique de la région CA1 lors de stimulations toutes les 30 secondes de la stratum radiatum (50-100 µA, 20 µs). Les EPSP sont évalués au maximum de l'onde négative. Le produit étudié est appliqué durant 10 minutes.

SMILES | Ki (récepteur AMPA [1]) | Ki (récepteur AMPA [2]) | Oocyte de Xenopus Ki AMPA/Ki NMDA/Gly (récepteur AMPA [2]) | IC50 (récepteur kainate) | IC50 (récepteurs AMPA/Kainate) | EPSP hippocampique IC50 AMPA-Kainate/IC50 NMDA-Glycine (récepteurs AMPA/Kainate)
N#Cc1cc2c(cc1[N+](=O)[O-])=NC(=O)C(=O)N=2 [CNQX, 6-cyano-7-nitroquinoxaline-2,3-dione] | 70 nM | 400 nM | 0,19 | 270 nM | 2900 nM | 0,03
NS(=O)(=O)c1cccc2c3c(cc([N+](=O)[O-])c12)=NC(=O)C(=O)N=3 [NBQX, 6-nitro-7-sulfamoylbenzo[f]quinoxaline-2,3-dione] | – | 60 nM | << 0,001 | 60 nM | 1000 nM | << 0,001
O=c1[nH]c2cc([N+](=O)[O-])ccc2cc1NS(=O)(=O)C(F)(F)F [Exemple 2, 7-Nitro-3-(trifluorométhylsulfonylamino)-2-(1H)-quinoléinone] | 600 nM | 370 nM | 0,60 | 500 nM | 10000 nM | 0,25
